From patent publication US7572765B2, “Conformationally constrained parathyroid hormone (PTH) analogs” (The General Hospital Corporation, priority 2001, dated 2009)
“And” between values parts separate entries of the source, which are not always exact repeats. Equal values may be shown once. Read-outs that look alike come from different tables or passages of the source. Square brackets hold non-standard residues; d marks the D form. Peptide text beside a SMILES is read from it. hArg = N=C(N)NCCCC[C@H](N)C(=O)O; Aib = CC(C)(N)C(=O)O

Columns and labels:
human P1R = molecular target: T1, human P1R (Homo sapiens, UniProt Q03431); assay: cAMP stimulation in HKRK-B28 cells; type: cell-based; conditions: for cAMP EMax(obs.): basal 4.0 ± 0.1 pmole/well not subtracted
T1 construct: expressed in transfected cells; host or cells: HKRK-B28 (porcine kidney LLC-PK1, stably transfected)
T1 sequence (Q03431 27-593): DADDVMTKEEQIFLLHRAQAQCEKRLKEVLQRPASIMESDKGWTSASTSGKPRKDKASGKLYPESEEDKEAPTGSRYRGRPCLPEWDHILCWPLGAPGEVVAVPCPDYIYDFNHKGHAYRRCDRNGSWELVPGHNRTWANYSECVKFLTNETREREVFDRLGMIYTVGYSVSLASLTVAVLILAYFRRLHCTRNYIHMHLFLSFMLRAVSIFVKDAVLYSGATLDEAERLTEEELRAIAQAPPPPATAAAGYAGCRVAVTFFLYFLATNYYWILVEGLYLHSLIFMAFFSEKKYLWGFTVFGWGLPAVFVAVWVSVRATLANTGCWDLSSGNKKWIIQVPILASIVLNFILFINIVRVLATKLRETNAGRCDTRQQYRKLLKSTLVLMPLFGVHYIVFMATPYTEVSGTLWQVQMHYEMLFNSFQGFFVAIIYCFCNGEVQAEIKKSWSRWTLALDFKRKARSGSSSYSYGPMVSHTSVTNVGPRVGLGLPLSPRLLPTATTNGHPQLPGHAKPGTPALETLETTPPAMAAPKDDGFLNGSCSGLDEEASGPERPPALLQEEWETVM

[1] = molecular target: T2, P1R-delNt, truncated human P1R deleted for residues (24-181) (Homo sapiens, UniProt Q03431); assay: Competition binding in COS-7 cells expressing hP1R-delNt; conditions: for Binding IC50 / IC50: COS-7 cells, hP1R-delNT, tracer 125I-[Aib^1,3,M]PTH(1-21), N.B. = no inhibition of tracer binding
T2 construct: expressed in transfected cells; host or cells: COS-7 (transient, FuGENE 6)
T2 sequence (Q03431 with tags, fused parts or gaps limits assumed): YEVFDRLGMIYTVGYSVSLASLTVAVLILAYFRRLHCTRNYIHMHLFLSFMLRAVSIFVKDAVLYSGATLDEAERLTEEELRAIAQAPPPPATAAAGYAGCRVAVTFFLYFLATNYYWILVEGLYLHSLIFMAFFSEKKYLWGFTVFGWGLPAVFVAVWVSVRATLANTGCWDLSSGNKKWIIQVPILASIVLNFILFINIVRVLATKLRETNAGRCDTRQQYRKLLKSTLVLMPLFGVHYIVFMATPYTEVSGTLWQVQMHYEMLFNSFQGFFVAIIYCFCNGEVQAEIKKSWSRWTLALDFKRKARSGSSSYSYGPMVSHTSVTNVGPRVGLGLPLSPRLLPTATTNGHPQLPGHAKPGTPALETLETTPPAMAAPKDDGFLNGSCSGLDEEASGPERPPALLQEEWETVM

CCCC[C@H](NC(=O)[C@H](CCCNC(=N)N)NC(=O)[C@H](CCC(=O)O)NC(=O)[C@@H](NC(=O)[C@H](CO)NC(=O)[C@H](C)NC(=O)[C@H](CC(C)C)NC(=O)[C@H](Cc1c[nH]cn1)NC(=O)[C@H](CCCCN)NC(=O)CNC(=O)[C@H](CC(C)C)NC(=O)[C@H](CC(N)=O)NC(=O)[C@H](Cc1c[nH]cn1)NC(=O)[C@H](CCCC)NC(=O)[C@H](CC(C)C)NC(=O)[C@H](CCC(N)=O)NC(=O)[C@@H](NC(=O)[C@H](CCC(=O)O)NC(=O)[C@H](CO)NC(=O)[C@@H](NC(=O)[C@H](C)N)C(C)C)[C@@H](C)CC)C(C)C)C(=O)N[C@@H](CCC(N)=O)C(=O)N[C@@H](Cc1c[nH]c2ccccc12)C(=O)N[C@@H](CC(C)C)C(=O)N[C@@H](CCCNC(=N)N)C(=O)N[C@@H](CCCCN)C(=O)N[C@@H](CCCCN)C(=O)N[C@@H](CC(C)C)C(=O)N[C@@H](CCC(N)=O)C(=O)N[C@@H](CC(=O)O)C(=O)N[C@H](C(=O)N[C@@H](Cc1c[nH]cn1)C(=O)N[C@@H](CC(N)=O)C(=O)N[C@@H](Cc1ccc(O)cc1)C(N)=O)C(C)C [PTH(1-34), [Nle^8,21, Tyr^34]PTH(1-34)amide, reference compound]
EC50 (human P1R): 2.5 ± 0.4 nM | maximum (Emax) increase in intracellular cAMP (human P1R): ~70 fold | cAMP EMax(obs.) (human P1R): 280 ± 11 pmole/well | Binding IC50 [1]: N.B.

CC[C@H](C)[C@H](NC(=O)[C@H](CCC(=O)O)NC(=O)C(C)(C)NC(=O)[C@@H](NC(=O)C(C)(C)N)C(C)C)C(=O)N[C@@H](CCC(N)=O)C(=O)N[C@@H](CC(C)C)C(=O)N[C@@H](CCSC)C(=O)N[C@@H](Cc1c[nH]cn1)C(=O)N[C@@H](CCC(N)=O)C(N)=O [[Aib^1,3,M]PTH(1-10), [Aib^1,3,Gln^10]PTH(1-10)] (H-[Aib]V[Aib]EIQLMHQ-NH2)
EC50 (human P1R): 16000 ± 2000 nM | cAMP potency, fold more potent than [Ala^3,Gln^10]PTH(1-10) (human P1R): 50 fold | cAMP potency, fold weaker relative to [Aib^1,3,M]PTH(1-11) (human P1R): 4000 fold | cAMP EMax(obs.) (human P1R): 111 ± 8 pmole/well | Binding IC50 [1]: N.B.

CC[C@H](C)[C@H](NC(=O)[C@H](CCC(=O)O)NC(=O)C(C)(C)NC(=O)[C@@H](NC(=O)C(C)(C)N)C(C)C)C(=O)N[C@@H](CCC(N)=O)C(=O)N[C@@H](CC(C)C)C(=O)N[C@@H](CCSC)C(=O)N[C@@H](Cc1c[nH]cn1)C(=O)N[C@@H](CCC(N)=O)C(=O)N[C@@H](CCCCNC(=N)N)C(N)=O [[Aib^1,3,M]PTH(1-11), AibValAibGluIleGlnLeuMetHisGlnHar] (H-[Aib]V[Aib]EIQLMHQ[hArg]-NH2)
EC50 (human P1R): 4 nM and ~6 nM | cAMP potency, fold greater than that of [M]PTH(1-11) (human P1R): 1,000 fold | cAMP EMax(obs.) (human P1R): 243 ± 15 pmole/well | cAMP potency, fold greater than that of [M]PTH(1-11) (human P1R; listed as [Aib^1,3,Gln^10,Har^11]PTH(1-11)): 1000 fold | IC50 [1]: 13000 nM

CC[C@H](C)[C@H](NC(=O)[C@H](CCC(=O)O)NC(=O)C(C)(C)NC(=O)[C@@H](NC(=O)C(C)(C)N)C(C)C)C(=O)N[C@@H](CCC(N)=O)C(=O)N[C@@H](CC(C)C)C(=O)N[C@@H](CCSC)C(=O)N[C@@H](Cc1c[nH]cn1)C(=O)N[C@@H](CCC(N)=O)C(=O)N[C@@H](CCCCNC(=N)N)C(=O)N[C@@H](C)C(=O)N[C@@H](CCCCN)C(=O)N[C@@H](Cc1c[nH]c2ccccc12)C(N)=O [[Aib^1,3,M]PTH(1-14), AibValAibGluIleGlnLeuMetHisGlnHarAlaLysTrp] (H-[Aib]V[Aib]EIQLMHQ[hArg]AKW-NH2)
EC50 (human P1R): 1.1 nM and ~1 nM | fold more potent in stimulating cAMP formation than [M]PTH(1-14) (human P1R): 90 fold and 100 fold | cAMP EMax(obs.) (human P1R): 278 ± 20 pmole/well | Binding IC50 [1]: effectively inhibited the binding | IC50 [1]: ~1500 nM | binding affinity, fold stronger than [M]PTH(1-14) ([1]; P1R-delNt): ~10 fold | difference in affinity between [Aib^1,3,M]PTH(1-14) and [Aib^1,3,M]PTH(1-21) ([1]; P1R-delNt): 50 fold

CC[C@H](C)[C@H](NC(=O)[C@H](CCC(=O)O)NC(=O)[C@H](C)NC(=O)[C@@H](NC(=O)[C@H](C)N)C(C)C)C(=O)N[C@@H](CCC(N)=O)C(=O)N[C@@H](CC(C)C)C(=O)N[C@@H](CCSC)C(=O)N[C@@H](Cc1c[nH]cn1)C(=O)N[C@@H](CCC(N)=O)C(=O)N[C@@H](CCCCNC(=N)N)C(=O)N[C@@H](C)C(=O)N[C@@H](CCCCN)C(=O)N[C@@H](Cc1c[nH]c2ccccc12)C(N)=O [[M]PTH(1-14), [Ala^3,12,Gln^10,Har^11,Trp^14]PTH(1-14)amide, reference compound] (H-AVAEIQLMHQ[hArg]AKW-NH2)
cAMP potency (EC50), fold less than that of PTH(1-34) (human P1R): 40 fold | maximum (Emax) increase in intracellular cAMP (human P1R): ~70 fold | cAMP EMax(obs.) (human P1R): 270 ± 8 pmole/well

H-AVSEIQLMHNLGKH-NH2 [PTH(1-14), reference compound]
Binding IC50 [1]: N.B. | Binding IC50 ([1]; listed as native PTH(1-14)): failed to inhibit tracer binding
